Source: patent publication US20210122730A1, “GLUCOCORTICOID RECEPTOR MODULATORS” (ORIC Pharmaceuticals, Inc., priority 2017, published 2021)

target: T1, GR (Homo sapiens, UniProt P04150); assay: In Vitro GR Luciferase Reporter Assay (antagonist mode, CHO-K1-GR-MMTV-Luc reporter cells); format: cell-based; settings: antagonist mode, 10 nM Dexamethasone
T1 construct: expressed in transfected cells; host or cells: CHO-K1
T1 sequence (P04150 1-777): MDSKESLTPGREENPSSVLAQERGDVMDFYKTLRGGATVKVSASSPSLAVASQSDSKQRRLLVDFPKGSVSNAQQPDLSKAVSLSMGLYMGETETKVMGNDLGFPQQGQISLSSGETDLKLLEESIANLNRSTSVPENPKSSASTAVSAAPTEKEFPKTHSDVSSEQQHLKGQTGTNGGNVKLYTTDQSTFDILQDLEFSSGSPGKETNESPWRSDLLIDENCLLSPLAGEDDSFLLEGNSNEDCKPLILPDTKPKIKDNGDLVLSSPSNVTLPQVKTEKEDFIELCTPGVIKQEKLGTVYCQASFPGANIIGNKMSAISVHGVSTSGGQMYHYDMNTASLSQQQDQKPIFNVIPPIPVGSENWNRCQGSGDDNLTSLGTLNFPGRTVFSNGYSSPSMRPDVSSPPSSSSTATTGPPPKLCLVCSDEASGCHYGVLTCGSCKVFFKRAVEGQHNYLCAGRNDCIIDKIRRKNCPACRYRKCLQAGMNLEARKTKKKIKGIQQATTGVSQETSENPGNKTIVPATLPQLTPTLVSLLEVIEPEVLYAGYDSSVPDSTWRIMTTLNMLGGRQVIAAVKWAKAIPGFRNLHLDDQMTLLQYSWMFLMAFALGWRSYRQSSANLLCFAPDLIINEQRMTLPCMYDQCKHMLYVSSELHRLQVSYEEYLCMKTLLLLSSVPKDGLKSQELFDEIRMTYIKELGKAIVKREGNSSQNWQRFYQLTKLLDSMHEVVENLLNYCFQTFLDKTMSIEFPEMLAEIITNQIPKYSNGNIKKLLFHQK
Procedure, shortened: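 CHO-K1-GR-MMTV-Luc cells in phenol red-free DMEM with 10% CSS, stimulated with 10 nM dexamethasone (final) and treated with 8-point 1:5 compound dilutions for about 18-24 h at 37° C. Luciferase measured by OneGlo luminescence; IC50 derived for inhibition of GR activity.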

Structure (SMILES) | IC50 [nM]
CC(C)N([C@H]1CCC2=Cc3c(cnn3-c3ccc(F)cc3)C[C@]2(C(=O)c2ncc(C(F)(F)F)s2)C1)S(=O)(=O)c1ccc(F)cc1 [Example 209, 4-fluoro-N-((4aS,6S)-1-(4-fluorophenyl)-4a-(5-(trifluoromethyl)thiazole-2-carbonyl)-4,4a,5,6,7,8-hexahydro-1H-benzo[f]indazol-6-yl)-N-isopropylbenzenesulfonamide] | ≤ 100
Cn1cc(S(=O)(=O)N(C2COC2)[C@H]2CCC3=Cc4c(cnn4-c4ccc(F)cc4)C[C@]3(C(=O)c3cc(C(F)(F)F)ccn3)C2)cn1 [Example 213, N-((4aS,6S)-1-(4-fluorophenyl)-4a-(4-(trifluoromethyl)picolinoyl)-4,4a,5,6,7,8-hexahydro-1H-benzo[f]indazol-6-yl)-1-methyl-N-(oxetan-3-yl)-1H-pyrazole-4-sulfonamide] | ≤ 100
Cn1cc(S(=O)(=O)N(C2COC2)[C@H]2CCC3=Cc4c(cnn4-c4ccc(F)cc4)C[C@]3(C(=O)c3ncc(C(F)(F)F)s3)C2)nn1 [Example 218, N-((4aS,6S)-1-(4-fluorophenyl)-4a-(5-(trifluoromethyl)thiazole-2-carbonyl)-4,4a,5,6,7,8-hexahydro-1H-benzo[f]indazol-6-yl)-1-methyl-N-(oxetan-3-yl)-1H-1,2,3-triazole-4-sulfonamide] | ≤ 100
Cn1cc(S(=O)(=O)N(C2COC2)[C@H]2CCC3=Cc4c(cnn4-c4ccc(F)cc4)C[C@]3(C(=O)c3cc(C(F)(F)F)ccn3)C2)nn1 [Example 220, N-((4aS,6S)-1-(4-fluorophenyl)-4a-(4-(trifluoromethyl)picolinoyl)-4,4a,5,6,7,8-hexahydro-1H-benzo[f]indazol-6-yl)-1-methyl-N-(oxetan-3-yl)-1H-1,2,3-triazole-4-sulfonamide] | ≤ 100

Results, then the compound that gave them:

IC50 [nM] | Structure (SMILES)
≤ 100 | Cn1ccc(C(=O)N(C2CC2)[C@H]2CCC3=Cc4c(cnn4-c4ccc(F)cc4)C[C@]3(C(=O)c3cc(C(F)(F)F)ccn3)C2)n1 [Example 197, N-cyclopropyl-N-((4aS,6S)-1-(4-fluorophenyl)-4a-(4-(trifluoromethyl)picolinoyl)-4,4a,5,6,7,8-hexahydro-1H-benzo[f]indazol-6-yl)-1-methyl-1H-pyrazole-3-carboxamide]
≤ 100 | Cn1ncc(S(=O)(=O)N(CC2CC2)[C@H]2CCC3=Cc4c(cnn4-c4ccc(F)cc4)C[C@]3(C(=O)c3cc(C(F)(F)F)ccn3)C2)n1 [Example 200, N-(cyclopropylmethyl)-N-((4aS,6S)-1-(4-fluorophenyl)-4a-(4-(trifluoromethyl)picolinoyl)-4,4a,5,6,7,8-hexahydro-1H-benzo[f]indazol-6-yl)-2-methyl-2H-1,2,3-triazole-4-sulfonamide]
≤ 100 | O=C(c1ncc(C(F)(F)F)s1)[C@]12Cc3cnn(-c4ccc(F)cc4)c3C=C1CC[C@H](N(C1COC1)S(=O)(=O)c1ccc(F)cc1)C2 [Example 205, 4-fluoro-N-((4aS,6S)-1-(4-fluorophenyl)-4a-(5-(trifluoromethyl)thiazole-2-carbonyl)-4,4a,5,6,7,8-hexahydro-1H-benzo[f]indazol-6-yl)-N-(oxetan-3-yl)benzenesulfonamide]
≤ 100 | Cn1cc(S(=O)(=O)N(C2COC2)[C@H]2CCC3=Cc4c(cnn4-c4ccc(F)cc4)C[C@]3(C(=O)c3ncc(C(F)(F)F)s3)C2)cn1 [Example 207, N-((4aS,6S)-1-(4-fluorophenyl)-4a-(5-(trifluoromethyl)thiazole-2-carbonyl)-4,4a,5,6,7,8-hexahydro-1H-benzo[f]indazol-6-yl)-1-methyl-N-(oxetan-3-yl)-1H-pyrazole-4-sulfonamide]
≤ 100 | CC(C)N([C@H]1CCC2=Cc3c(cnn3-c3ccc(F)cc3)C[C@]2(C(=O)c2ncc(C(F)(F)F)s2)C1)S(=O)(=O)c1ccc(Cl)cc1 [Example 208, 4-chloro-N-((4aS,6S)-1-(4-fluorophenyl)-4a-(5-(trifluoromethyl)thiazole-2-carbonyl)-4,4a,5,6,7,8-hexahydro-1H-benzo[f]indazol-6-yl)-N-isopropylbenzenesulfonamide]
